Reference: patent US20120053122A1, “METHOD FOR THE PROPHYLAXIS OR TREATMENT OF FLUSHING” (priority 2009, published 2012)
Read-outs that look alike come from different tables or passages of the source. Square brackets hold non-standard residues; d marks the D form. Peptide text beside a SMILES is read from it. dPhe(4-Cl) = N[C@H](Cc1ccc(Cl)cc1)C(=O)O; d2Nal = N[C@H](Cc1ccc2ccccc2c1)C(=O)O; dCit = NC(=O)NCCC[C@@H](N)C(=O)O; d3Pal = N[C@H](Cc1cccnc1)C(=O)O

Experiments:
[1] = tested on: PMP flushing; conditions: in vivo; cited from earlier work
[2] = tested on: breast cancer; conditions: breast cancer survivors; cited from earlier work
[3] = tested on: PMP flushing; test: Long-term treatment, outpatient setting: flush recording; assay type: in vivo, women
Description: To avoid intermittent and variable interference of external factors as much as possible, and to guarantee a constant ambient temperature all subjects were hospitalized for further study. They remained ambulatory during that period. They were instructed to record the following flush characteristics in a diary: time of onset, duration in minutes, flush severity on a scale of 0-10, and the degree of associated sweat attacks: 0=no sweating; 1=mild sweating, i.e. only moist skin, no visible sweat drops; 2=moderate sweating, i.e. visible sweat drops; 3=severe sweating, i.e. totally wet, change of clothes necessary. Blood samples for measurement of serum LH, FSH, estradiol, SHBG and albumin were taken each day at 08.00 h and 20.00 h. To evaluate whether responsiveness was maintained in the long run, Cetrorelix treatment was studied for a prolonged period in an outpatient setting. Cetrorelix was started after a baseline observation period of 3-6 days. In the first two patients the starting dose was of 250 μg once a day, injected at about 8.30-9.00 h, just after the morning blood sampling. In the third patient the starting dose was 500 μg once a day. Blood was sampled only in the morning, between 8.00 en 9.00 h, every day during the first 4 days, thereafter every 3 days for a brief period, and later on once a week.

[4] = tested on: serum LH and FSH; test: Long-term treatment, outpatient setting: serum LH and FSH; assay type: in vivo, women
Protocol: LH, FSH and estradiol were measured by electrochemiluminescene immunoassays (Roche Diagnostics, Mannheim, Germany). Normal ranges in PMP women: LH>10 U/L, FSH>30 U/L, estradiol<100 nmol/L. SHBG was measured by chemilumiescent enzyme immunoassay (DPC, Los Angeles, Calif., USA, normal range in PMP women: 18-144 nmol/L)). To evaluate whether responsiveness was maintained in the long run, Cetrorelix treatment was studied for a prolonged period in an outpatient setting. Cetrorelix was started after a baseline observation period of 3-6 days. In the first two patients the starting dose was of 250 μg once a day, injected at about 8.30-9.00 h, just after the morning blood sampling. In the third patient the starting dose was 500 μg once a day. Blood was sampled only in the morning, between 8.00 en 9.00 h, every day during the first 4 days, thereafter every 3 days for a brief period, and later on once a week.

[5] = tested on: serum LH, FSH, estradiol, SHBG and albumin; test: Short-term in-hospital response: serum LH, FSH, estradiol, SHBG and albumin; assay type: in vivo, women
Description: (§1) To avoid intermittent and variable interference of external factors as much as possible, and to guarantee a constant ambient temperature all subjects were hospitalized for further study. They remained ambulatory during that period. They were instructed to record the following flush characteristics in a diary: time of onset, duration in minutes, flush severity on a scale of 0-10, and the degree of associated sweat attacks: 0=no sweating; 1=mild sweating, i.e. only moist skin, no visible sweat drops; 2=moderate sweating, i.e. visible sweat drops; 3=severe sweating, i.e. totally wet, change of clothes necessary. Blood samples for measurement of serum LH, FSH, estradiol, SHBG and albumin were taken each day at 08.00 h and 20.00 h. LH, FSH and estradiol were measured by electrochemiluminescene immunoassays (Roche Diagnostics, Mannheim, Germany). Normal ranges in PMP women: LH>10 U/L, FSH>30 U/L, estradiol<100 nmol/L. SHBG was measured by chemilumiescent enzyme immunoassay (DPC, Los Angeles, Calif., USA, normal range in PMP women: 18-144 nmol/L)).

[6] = tested on: PMP flushing; test: Short-term in-hospital response: flush diary (frequency, duration, severity, sweating); assay type: in vivo, women
Protocol: (§2) Three women who were referred for treatment of severe PMP flushing were included in the pilot study, after signing an informed consent. All three had frequent and severe flushing, during daytime as well as during the night. Sleep was often disturbed by flushes and sweat attacks, often forcing a change of clothes and/or bed linen. Physical examination in these patients was unremarkable and other causes of flushing were excluded. Thyroid function was normal, 24 hour urinary hydroxy-indol-acetic acid and catecholamines were within the reference range, serum tryptase was normal, and none used any medication known to induce flushing.
as §1, with “h.” for “h. LH, FSH and estradiol were measured by electrochemiluminescene immunoassays (Roche Diagnostics, Mannheim, Germany). Normal ranges in PMP women: LH>10 U/L, FSH>30 U/L, estradiol<100 nmol/L. SHBG was measured by chemilumiescent enzyme immunoassay (DPC, Los Angeles, Calif., USA, normal range in PMP women: 18-144 nmol/L)).”

[7] = tested on: PMP flushing
Protocol: as §2

[8] = Patient 1, discontinued after 4 months
[9] = Patient 1, outpatient, 250 μg once a day, after two weeks
[10] = Patient 1, outpatient, 250 μg once a day, if flushes occurred
[11] = Patient 2, outpatient, 250 μg once a day, over the following weeks
[12] = Patient 2, outpatient, 250 μg twice a day after the third month
[13] = Patient 2, outpatient, 250 μg twice a day, eventually
[14] = Patient 1, outpatient, 250 μg once a day
[15] = Patient 3, outpatient, 500 μg once a day at 20.00 h, first 4 weeks
[16] = Patient 1, 250 μg once a day for five days
[17] = Patient 3, 250 μg once a day at 08.30 h
[18] = Patient 1, 250 μg once a day, within 24 hours
[19] = Patient 2, 250 μg once a day, 4th day of treatment
[20] = Patient 3, 250 μg once a day, after the first 5 days

## Fc1ccc([C@@H]2CCNC[C@H]2COc2ccc3c(c2)OCO3)cc1 [paroxetine]
[1]
  Effectiveness against PMP flushing relative to placebo treatment: about twice as effective as placebo treatment

## COc1ccc(C(CN(C)C)C2(O)CCCCC2)cc1 (stereo not drawn) [venlafaxine]
[1]
  Effectiveness against PMP flushing relative to placebo treatment: about twice as effective as placebo treatment

## estrogen
[2]
  Increased risk of a new primary or a breast cancer recurrence: three-fold
[1]
  Effectiveness against PMP flushing relative to placebo treatment: four times as effective
  Reduction of PMP flush frequency: 80-90%

## CC(=O)N[C@H](Cc1ccc2ccccc2c1)C(=O)N[C@H](Cc1ccc(Cl)cc1)C(=O)N[C@H](Cc1cccnc1)C(=O)N[C@@H](CO)C(=O)N[C@@H](Cc1ccc(O)cc1)C(=O)N[C@H](CCCNC(N)=O)C(=O)N[C@@H](CC(C)C)C(=O)N[C@@H](CCCNC(=N)N)C(=O)N1CCC[C@H]1C(=O)N[C@H](C)C(N)=O [Cetrorelix] (Ac-[d2Nal][dPhe(4-Cl)][d3Pal]SY[dCit]LRP[dA]-NH2)
[3]; [8]
  Time after discontinuation at which flush frequency started to rise: 6 weeks
[3]; [9]
  Daytime flush frequency: close to zero
  Nighttime flush frequency: close to zero
[3]; Patient 1, outpatient, 250 μg once a day, from about 8, day as well as night
  Flush severity (scale of 0-10): ~4
[3]; [10]
  Degree of perspiration: unchanged
  Flush duration: unchanged
[3]; [11]
  Daytime flush duration: gradually decreased
  Daytime flush perspiration: gradually decreased
  Daytime flush severity: gradually decreased
[3]; Patient 2, outpatient, 250 μg once a day, up to third month
  Daytime flushing, level at which it levelled off: 10 flushes/day
[3]; Patient 2, outpatient, 250 μg once a day, within the first week, from about 18
  Daytime flush frequency: ~8 flushes/day
[3]; Patient 2, outpatient, 250 μg once a day, within two days
  Nighttime flushing: disappeared completely
[3]; [12]
  Flushing: further decreased
[3]; [13]
  Total daily flushing: 6 flushes/day
  Total decrease in total daily flushing: about 75%
[3]; Patient 3, outpatient, 500 μg once a day, P<0.007
  Decline of flush frequency: 79.3%
[3]; Patient 3, outpatient, 500 μg once a day, from 9.67±1.12, P<0.007
  Flush frequency (mean±standard error of the mean): 2.00±0.44
[4]; [8]
  Time for FSH levels to rise to pretreatment levels after discontinuation: ≤ 3 days
  Time for LH levels to rise to pretreatment levels after discontinuation: ≤ 3 days
[4]; [14]
  Serum FSH: decreased to levels similar to those observed during the in-hospital setting
  Serum LH: decreased to levels similar to those observed during the in-hospital setting
[4]; Patient 2, outpatient, 250 μg once a day, stabilized level
  FSH: around 15 U/L
[4]; Patient 2, outpatient, 250 μg once a day, within a week
  Serum LH: decreased to premenopausal levels
[4]; [12]
  Serum FSH level: further decreased
  Serum LH level: further decreased
[4]; [15]
  Serum FSH nadir: 25 U/L
  Serum LH nadir: 8 U/L
[5]; Patient 1, 250 μg once a day
  Time at which FSH reached its nadir: 3 days
[5]; [16]
  Serum SHBG level: did not change
  Serum albumin level: did not change
  Serum estradiol level: did not change
[5]; Patient 1, 250 μg once a day, in 3 days, from about 90
  Serum FSH: ~60 U/L
[5]; Patient 1, 250 μg once a day, within 12 hours, from about 22
  Serum LH level: ~10 U/L
[5]; Patient 1, short-term
  Time for serum FSH to rise again to pre-treatment levels after discontinuation: ≤ 48 h
  Time for serum LH to rise again to pre-treatment levels after discontinuation: ≤ 48 h
[5]; Patient 2, 250 μg once a day
  Serum FSH level change: gradual decrease
  Time at which FSH reached its nadir: 5 days
[5]; Patient 2, 250 μg once a day, within 12 hours
  Serum LH change: abrupt decrease
[5]; Patient 2, short-term
  Time for LH to return to pre-treatment levels after discontinuation: ≤ 48 h
[5]; Patient 2, short-term, compared with LH
  FSH after discontinuation: rose somewhat more slowly
[5]; [17]
  FSH change: more gradually
  LH change: decreased abruptly
[5]; Patient 3, short-term
  FSH after discontinuation of treatment: rose rapidly
  LH after discontinuation of treatment: rose rapidly
[6]; [16]
  Daytime flush duration: did not change appreciably
  Nighttime flush duration: tended to decrease
[6]; Patient 1, 250 μg once a day for five days, in particular during daytime
  Flush severity: weak trend to decrease
[6]; [18]
  Decrease in daytime flush frequency: 60-70%
  Decrease in nighttime flushing: 60-70%
  Decrease in total flush frequency: 60-70%
[6]; Patient 1, short-term
  Time for flush frequency to rise again to pre-treatment levels after discontinuation: ≤ 48 h
[6]; Patient 2, 250 μg once a day
  Daytime flush duration: tended to decrease slightly
  Daytime flush severity: did not change significantly
  Flush sweating: did not change significantly
[6]; [19]
  Change in daytime flush frequency: −80%
  Daytime flush frequency: 4 flushes per day
[6]; Patient 2, 250 μg once a day, after the first night
  Nighttime flushing: completely disappeared
[6]; Patient 2, 250 μg once a day, first night of treatment
  Change in nighttime flushing: −80%
[6]; Patient 2, 250 μg once a day, first night of treatment, from 5
  Nighttime flushing: 1
[6]; Patient 2, 250 μg once a day, within one day
  Change in daytime flush frequency: −60%
[6]; Patient 2, 250 μg once a day, within one day, from 20
  Daytime flush frequency: 8
[6]; Patient 2, within the two days after discontinuation
  Flush frequency after discontinuation: did not reach pre-treatment levels
[6]; [20]
  Change in daytime flushes: −25%
  Change in total flushes: −25%
  Nighttime flushing: did not change significantly
[6]; Patient 3, 250 μg twice a day
  Nighttime flushing: started to decrease
[6]; Patient 3, after 250 μg once then twice a day, one day after discontinuation
  Decrease in total daily flush frequency: 80%
[6]; Patient 3, six days after discontinuation
  Flush frequency after discontinuation: still markedly lower than before treatment

## Clc1cccc(Cl)c1N=C1NCCN1 [Clonidine]
[7]; Patient 1, up to 75 μg twice a day
  Effect on flushing: no beneficial effect
[7]; Patient 2, 50 μg twice a day
  Effect on flushing: no beneficial effect
[7]; Patient 3, 75 μg twice a day
  Effect on flushing: no effect whatsoever
[7]; all three patients, previous use
  Benefit on flushing: without experiencing a significant benefit

## NCC1(CC(=O)O)CCCCC1 [gabapentin]
[1]
  Effectiveness against PMP flushing relative to placebo treatment: about twice as effective as placebo treatment
